Source: patent US20150329498A1, “IRAK INHIBITORS AND USES THEREOF” (Nimbus Iris, Inc., priority 2014, published 2015)

Tested on: IL8 production in THP-1 cells
Test: LPS induced IL8 production assay in THP-1 cells
Assay type: cell-based
Conditions: Homo sapiens, 300 ng/mL LPS, measured at 16 hours
Protocol: Provided compounds were also assayed in an LPS (Lipopolysaccharide) or R848 (TLR-7 agonist) induced cytokine (TNFα and IL8) production assay in THP-1 cells, human white blood cells (hWBC), and human whole blood. The exemplary protocol for this assay in THP-1 cells was as follows below.
THP-1 cells from ATCC (TIB-202) were cultured in RPMI Medium 1640 (Invitrogen, Cat No. A10491-01), 10% fetal bovine serum (Invitrogen, Cat No. 10099141, Lot No. 8172882) containing 100 U/mL Penicillin, 100 μg/mL streptomycin (Invitrogen, Cat No. 15140-122), and 50 uM 2-Mercaptoethanol (Invitrogen, Cat No. 21985023). LPS-EK ultra pure (Invivogen, Cat No. tlrl-peklps) was used to induce IL8 and TNFα production, that was detected in the cell culture supernatant by IL8 HTRF kit (Cisbio, Cat No. 62IL8PEB) and TNFα HTRF kit (Cisbio, Cat No. 62TNFPEB), as per manufacturer instructions. Cells were cultured in 96 well assay plates at 100,000 cells per well, and compounds diluted in final 0.3% DMSO were pre-incubated with cells for 1 hour prior to stimulation with 300 ng/mL LPS. Cytokine production in cell supernatant was measured at 5 hours for TNFα production, and at 16 hours for IL8 production and assessment of cell viability.
The compound numbers correspond to the compound numbers in Table 1. Compounds having an activity designated as “A” provided an IC50≦0.5 μM; compounds having an activity designated as “B” provided an IC50 of 0.5-5.0 μM; compounds having an activity designated as “C” provided an IC50>5.0 μM. “NA” stands for “not assayed.”

IC50 [nM]	Compound
≤ 500	N#Cc1ccc2ncnc(N[C@H]3CC[C@H](N4CCC5(CC4)CC5)CC3)c2c1 [Compound I-7, 4-(((1r,4r)-4-(6-azaspiro[2.5]octan-6-yl)cyclohexyl)amino)-quinazoline-6-carbonitrile]
≤ 500	N#Cc1ccc2ncnc(N[C@H]3CC[C@H](N4CCOCC4)CC3)c2c1 [Compound I-3, 4-(((1r,4r)-4-morpholinocyclohexyl)amino)quinazoline-6-carbonitrile]
